Data taken from patent publication US20080070868A1, “Novel Thiazole Inhibitors of Fructose 1,6-bisphosphatase” (Metabasis Therapeutics, Inc., priority 2004, published 2008).

Legend:
human liver FBPase = target: T1, human liver FBPase (Homo sapiens, UniProt P09467); test: Inhibition of human liver FBPase; format: biochemical; conditions: purified recombinant human liver FBPase, 0.150 mM fructose 1,6-bisphosphate, 37° C.; read-out: IC50 (hlFBPase)
T1 construct: made in house; host or cells: E. coli BL21
T1 sequence (P09467 2-338 limits assumed): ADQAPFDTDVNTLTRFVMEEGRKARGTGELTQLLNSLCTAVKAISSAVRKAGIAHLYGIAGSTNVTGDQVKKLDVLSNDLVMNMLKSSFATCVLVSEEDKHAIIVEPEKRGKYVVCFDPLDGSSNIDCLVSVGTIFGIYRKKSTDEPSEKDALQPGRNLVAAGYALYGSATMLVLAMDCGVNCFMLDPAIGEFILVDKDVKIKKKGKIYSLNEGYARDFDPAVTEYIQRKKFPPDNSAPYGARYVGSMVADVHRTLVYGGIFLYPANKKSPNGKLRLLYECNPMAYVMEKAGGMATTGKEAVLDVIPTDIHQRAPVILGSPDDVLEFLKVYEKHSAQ
Procedure: E. coli strain BL21 transformed with a human liver FBPase-encoding plasmid was obtained from Dr. M. R. El-Maghrabi at the State University of New York at Stony Brook. […] Enzymatic activity was measured spectrophotometrically in reactions that coupled the formation of product (fructose 6-phosphate) to the reduction of dimethylthiazoldiphenyltetrazolium bromide (MTT) via NADP^+ and phenazine methosulfate (PMS), using phosphoglucose isomerase and glucose 6-phosphate dehydrogenase as the coupling enzymes. Reaction mixtures (200 μl) were made up in 96-well microtitre plates, and consisted of 50 mM Tris-HCl, pH 7.4, 100 mM KCl, 5 mM EGTA, 2 mM MgCl2, 0.2 mM NADP, 1 mg/ml BSA, 1 mM MTT, 0.6 mM PMS, 1 unit/ml phosphoglucose isomerase, 2 units/ml glucose 6-phosphate dehydrogenase, and 0.150 mM substrate (fructose 1,6-bisphosphate). Inhibitor concentrations were varied from 0.01 μM to 10 μM. Reactions were started by the addition of 0.002 units of pure hlFBPase, and were monitored for 7 min. at 590 nm in a Molecular Devices Plate Reader (37° C.).

Sprague-Dawley rats = test: Glucose lowering following oral administration to the fasted, normal rat; format: in vivo; conditions: maximum lowering relative to saline controls, 10 mg/kg oral, 18-h fasted rats
Procedure: Compounds were administered by oral gavage to 18-h fasted, Sprague-Dawley rats (250-300 g, n=3/4/group) at a dose of 10 mg/kg. Phosphonic acids (active moieties) were prepared in deionized water, and the solution adjusted to neutrality with sodium hydroxide. Prodrugs were dissolved in polyethylene glycol (mw 400). Blood samples were taken via tail vein nick immediately prior to dosing and at 1 h intervals thereafter. Blood glucose was analyzed by means of a HemoCue glucose analyzer (HemoCue Inc., Mission Viejo, Calif.). The table below indicates the maximum % glucose lowering achieved relative to control animals dosed with saline.

IC50 (human liver FBPase) [nM] | Compound | inhibition in vivo at 10 mg/kg (Sprague-Dawley rats) [%]
16 | Nc1nc(-c2ccc(P(=O)(O)O)o2)c(C(=O)C2CCC2)s1 [Compound 1.34, [5-(2-amino-5-cyclobutylcarbonylthiazol-4-yl)furan-2-yl]-phosphonic acid] | 
118 | COc1ccccc1C(=O)c1sc(N)nc1-c1ccc(P(=O)(O)O)o1 [Compound 1.14, [5-(2-amino-5-(2-methoxybenzoyl)thiazol-4-yl)furan-2-yl]-phosphonic acid] | 
73 | Nc1nc(-c2ccc(P(=O)(O)O)o2)c(C(=O)c2cccc(Cl)c2)s1 [Compound 1.12, [5-(2-amino-5-(3-chlorobenzoyl)thiazol-4-yl)furan-2-yl]-phosphonic acid] | 
111 | Nc1nc(-c2ccc(P(=O)(O)O)o2)c(C(=O)c2ccccc2C(F)(F)F)s1 [Compound 1.27, [5-(2-amino-5-(2-trifluoromethylbenzoyl)thiazol-4-yl)-furan-2-yl]phosphonic acid] | 
95 | Nc1nc(-c2ccc(P(=O)(O)O)o2)c(C(=O)c2ccc(N3CCOCC3)c(Cl)c2)s1 [Compound 1.25, [5-(2-amino-5-(3-chloro-4-(1-morpholinyl)benzoyl)-thiazol-4-yl)furan-2-yl]phosphonic acid] | 
105 | CN(C)c1ccc(C(=O)c2sc(N)nc2-c2ccc(P(=O)(O)O)o2)cc1 [Compound 1.32, [5-(2-amino-5-(4-(N,N-dimethylamino)benzoyl)thiazol-4-yl)-furan-2-yl]phosphonic acid] | 
48 | Cc1ccc(C(=O)c2sc(N)nc2-c2ccc(P(=O)(O)O)o2)cc1 [Compound 1.10, [5-(2-amino-5-(4-methylbenzoyl)thiazol-4-yl)furan-2-yl]-phosphonic acid] | 
41 | Nc1nc(-c2ccc(P(=O)(O)O)o2)c(C(=O)c2cccs2)s1 [Compound 1.7, [5-(2-amino-5-(2-thienylcarbonyl)thiazol-4-yl)furan-2-yl]-phosphonic acid] | 
99 | Nc1nc(-c2ccc(P(=O)(O)O)o2)c(C(=O)c2ccc(C(F)(F)F)cc2)s1 [Compound 1.24, [5-(2-amino-5-(4-trifluoromethylbenzoyl)thiazol-4-yl)-furan-2-yl]phosphonic acid] | 
86 | Nc1nc(-c2ccc(P(=O)(O)O)o2)c(C(=O)c2ccc(Cl)cc2)s1 [Compound 1.9, [5-(2-amino-5-(4-chlorobenzoyl)thiazol-4-yl)furan-2-yl]-phosphonic acid] | 
53 | Nc1nc(-c2ccc(P(=O)(O)O)o2)c(C(=O)c2ccc3c(c2)OCO3)s1 [Compound 1.19, [5-(2-amino-5-(3,4-methylenedioxybenzoyl)thiazol-4-yl)-furan-2-yl]phosphonic acid] | 
54 | Nc1nc(-c2ccc(P(=O)(O)O)o2)c(C(=O)c2ccc(N3CCCC3)c(Cl)c2)s1 [Compound 1.21, [5-(2-amino-5-(3-chloro-4-(1-pyrrolidinyl)benzoyl)-thiazol-4-yl)furan-2-yl]-phosphonic acid] | 
61 | COc1ccc(C(=O)c2sc(N)nc2-c2ccc(P(=O)(O)O)o2)cc1 [Compound 1.16, [5-(2-amino-5-(4-methoxybenzoyl)thiazol-4-yl)furan-2-yl]-phosphonic acid] | 
11 | CCC(C)C(=O)c1sc(N)nc1-c1ccc(P(=O)(O)O)o1 (stereo not shown) [Compound 1.33, [5-(2-amino-5-(2-methylbutyryl)thiazol-4-yl)furan-2-yl]-phosphonic acid] | 
37 | Nc1nc(-c2ccc(P(=O)(O)O)o2)c(C(=O)c2cccc(F)c2)s1 [Compound 1.8, [5-(2-amino-5-(3-fluorobenzoyl)thiazol-4-yl)furan-2-yl]-phosphonic acid] | 
40 | Nc1nc(-c2ccc(P(=O)(O)O)o2)c(C(=O)C2CCCCC2)s1 [Compound 1.6, [5-(2-amino-5-cyclohexylcarbonyl-thiazol-4-yl)furan-2-yl]-phosphonic acid] | 

IC50 (human liver FBPase) [nM] | Compound | inhibition in vivo at 10 mg/kg (Sprague-Dawley rats) [%]
36 | Cc1cccc(C(=O)c2sc(N)nc2-c2ccc(P(=O)(O)O)o2)c1 [Compound 1.11, [5-(2-amino-5-(3-methylbenzoyl)thiazol-4-yl)furan-2-yl]-phosphonic acid] | 
60 | Nc1nc(-c2ccc(P(=O)(O)O)o2)c(C(=O)c2ccc3ccccc3c2)s1 [Compound 1.29, [5-(2-amino-5-(2-naphthylcarbonyl)thiazol-4-yl)furan-2-yl]-phosphonic acid] | 
94 | COc1ccc(C(=O)c2sc(N)nc2-c2ccc(P(=O)(O)O)o2)cc1OC [Compound 1.17, [5-(2-amino-5-(3,4-dimethoxybenzoyl)thiazol-4-yl)furan-2-yl]-phosphonic acid] | 
 | CCOC(=O)C(C)(C)NP(=O)(Oc1ccc2c(c1)OCO2)c1ccc(-c2nc(N)sc2C(=O)C(C)(C)C)o1 (stereo not shown) [Compound 5.3] | 51
 | CCOC(=O)C(C)(C)NP(=O)(NC(C)(C)C(=O)OCC)c1ccc(-c2nc(N)sc2C(=O)c2ccccc2C)o1 [Compound 2.15] | 8
 | CCC(CC)C(=O)c1sc(N)nc1-c1ccc(P(=O)(N[C@@H](C)C(=O)OC(C)C)N[C@@H](C)C(=O)OC(C)C)o1 [Compound 2.26, 2-amino-5-(2-ethylbutyryl)-4-{[5-(N,N′-((S)-1-isopropyl-oxycarbonyl)ethyl)-phosphonamido]furan-2-yl}thiazole] | 16
14 | Nc1nc(-c2ccc(P(=O)(O)O)o2)c(C(=O)C2CCCC2)s1 [Compound 1.30, [5-(2-amino-5-cyclopentylcarbonylthiazol-4-yl)furan-2-yl]-phosphonic acid] | 
 | CCOC(=O)C(C)(C)NP(=O)(NC(C)(C)C(=O)OCC)c1ccc(-c2nc(N)sc2C(=O)C2CCC2)o1 [Compound 2.29] | 12
 | CC(C)(C)C(=O)c1sc(N)nc1-c1ccc(P2(=O)OCC[C@H](c3cccc(Cl)c3)O2)o1 (stereo partly drawn) [Compound 7.2, (trans)-2-amino-5-(2,2-dimethylpropionyl)-4-{[5-(4-(3-chlorophenyl)-2-oxo-1,3,2-phosphorinan-2-yl)]furan-2-yl}thiazole] | 3
 | CCOC(=O)OCOP(=O)(OCOC(=O)OCC)c1ccc(-c2nc(N)sc2C(=O)C(C)(C)C)o1 [Compound 8.3, 2-amino-5-(2,2-dimethylpropionyl)-4-{[5-(O,O′-bis(ethoxycarbonyl-oxymethyl)phosphono)]furan-2-yl}thiazole] | 24
 | CCOC(=O)[C@H](C)NP(=O)(N[C@@H](C)C(=O)OCC)c1ccc(-c2nc(N)sc2C(=O)c2cccc(F)c2)o1 [Compound 2.19, 2-amino-5-(3-fluorobenzoyl)-4-{[5-(N,N′-((S)-1-ethyloxy-carbonyl)ethyl)-phosphonamido]furan-2-yl}thiazole] | 16
 | CC(C)(C)C(=O)c1sc(N)nc1-c1ccc(P(=O)(OCCSC(=O)c2ccccc2)OCCSC(=O)c2ccccc2)o1 [Compound 6.5] | 9
 | CCOC(=O)C(C)(C)NP(=O)(OCC(=O)OCc1ccccc1)c1ccc(-c2nc(N)sc2C(=O)C(C)(C)C)o1 (stereo not shown) [Compound 5.5] | 20
 | CCC(C)(C)C(=O)c1sc(N)nc1-c1ccc(P(=O)(NC(C)(C)C(=O)OC(C)C)NC(C)(C)C(=O)OC(C)C)o1 [Compound 2.8] | 14
 | CC(C)(C)C(=O)c1sc(N)nc1-c1ccc(P2(=O)OCC[C@@H](c3cccc(Cl)c3)O2)o1 (stereo partly drawn) [Compound 7.1, (cis)-2-amino-5-(2,2-dimethylpropionyl)-4-{[5-(4-(3-chlorophenyl)-2-oxo-1,3,2-phosphorinan-2-yl)]furan-2-yl}thiazole] | 70
